The values that follow come from ChEMBL document CHEMBL1201862, “PubChem BioAssay data set” (2004).

Activity calls are given as the source filed them. Unless noted, the rule behind the calls is not given here.

Assay [1] can be described thus: time-course viability loss in HT-29 cells – cell-based, CellTiter-Glo, multiple timepoints, dry powder, HRas target identification project, dose response (AID 720598). In kind it is functional. In general terms: Cellular ATP, detected with luciferase, serves as a proxy for viable cell number.
The nature of assay [2]: cytotoxicity in SR immunoblastic lymphoma cells – cell-based, CellTiter-Glo ATP luminescence, 8-48 h, dry powder, mechanism study for HRAS target identification, late-stage follow-up (AID 720608). In kind it is functional.
The nature of assay [3]: cytotoxicity in SNB-19 cells – cell-based, CellTiter-Glo ATP luminescence, 8-48 h, dry powder, mechanism study for HRAS target identification, late-stage follow-up (AID 720611). The format is functional.
Assay [4] can be described thus: cytotoxicity in LOX IMVI melanoma cells – cell-based, CellTiter-Glo ATP luminescence, 8/24/48 h, dry powder, HRAS target identification, dose response (AID 720602). In kind it is functional.
Assay [5] is described as follows: cytotoxicity in mouse C2C12 myoblasts – cell-based, CellTiter-Glo ATP luminescence, 8/24/48 h, dry powder, cytotoxicity control for HRAS target identification, dose response (AID 720603). The format is functional.
Assay [6] can be described thus: cytotoxicity in SNB-19 CNS tumor cells – cell-based, Alamar Blue fluorescence, 8/24/48 h, dry powder, HRAS target identification, dose response (AID 720600). The format is functional. A general note: The colour change of resazurin is a common sign of viable cells or microbes.
A short description of assay [7]: cytotoxicity in U-251 CNS tumor cells – cell-based, Alamar Blue fluorescence, 8/24/48 h, dry powder, HRAS target identification, dose response (AID 720605). The format is functional.
The nature of assay [8]: cytotoxicity in CCRF-CEM lymphoblastic leukemia cells – cell-based, CellTiter-Glo ATP luminescence, 8/24/48 h, dry powder, HRAS target identification, dose response (AID 720607). In kind it is functional.
Assay [9] is described as follows: cells. The settings on record: HEK293.
Assay [10] has as its target T1, Tyrosine-protein phosphatase non-receptor type 7 (Homo sapiens, UniProt P35236).
T1 sequence (P35236 whole entry): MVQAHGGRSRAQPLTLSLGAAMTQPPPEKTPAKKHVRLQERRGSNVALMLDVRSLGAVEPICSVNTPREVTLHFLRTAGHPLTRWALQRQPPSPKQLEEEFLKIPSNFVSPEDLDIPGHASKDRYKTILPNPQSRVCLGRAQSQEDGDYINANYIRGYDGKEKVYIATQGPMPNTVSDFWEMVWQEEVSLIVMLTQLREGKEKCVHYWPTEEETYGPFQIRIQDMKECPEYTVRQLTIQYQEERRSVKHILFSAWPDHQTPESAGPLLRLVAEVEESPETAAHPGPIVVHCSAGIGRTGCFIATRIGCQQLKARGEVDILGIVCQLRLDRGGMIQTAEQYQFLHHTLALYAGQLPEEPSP
Nature of the assay: HePTP tyrosine phosphatase activity blockers – biochemical, absorbance, leukemia target, primary screen (AID 521). In kind it is functional.

A short description of assay [11]: IC50 of insulin release inhibition, rat insulinoma INS-1E line, 5 mM glucose, cell-based (AID 1117331). The format is functional.
Assay [12] in a line: cells. The format is functional, cell-based. The settings on record: INS-1E.
A further assay deals with Cryptococcus neoformans. Nature of the assay: PubChem AID 686997. The format is functional, organism-based.
The subject of the next assay is HeLa. Kind of assay: viability loss in HeLa cells – cell-based, ATP luminescence, cherry-pick samples, cytotoxicity control, dose response (AID 687004). In kind it is functional. The settings on record: Homo sapiens.
In another assay the test system is HEK293. Nature of the assay: viability loss in HEK293T cells – cell-based, ATP luminescence, cherry-pick samples, cytotoxicity control, dose response (AID 687005).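 Also: cells exposed to compound for 48 hours.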 The settings on record: Homo sapiens. The format is functional.
Assay [13] can be described thus: HEK293 Cytotoxicity Assay Measured in Cell-Based System Using Plate Reader - 7071-01_Inhibitor_Dose_CherryPick_Activity_Set2. The format is functional.
Assay [14] in a line: viability of PTEN-deleted HCT116 cells – cell-based, HCT116 PTEN knockout, dose response (AID 1047).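 Also: HCT116 colon tumor cells with PTEN knocked out; cells exposed to compound for 60 hours before readout; potency for loss of cell viability measured by luminescence.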 In kind it is functional.
Assay [15] in a line: viability of HCT116 lacking mutant beta-catenin – cell-based, human colon tumor, dose response (AID 1045).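 Also: HCT116 colon tumor cells with beta catenin knocked out; cells exposed to compound for 60 hours.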 In kind it is functional.
A further assay has as its target T2, X-box-binding protein 1 (Homo sapiens, UniProt P17861).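 Also: confirmatory dose-response counter-screen serving a CHOP assay.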
T2 sequence (P17861 whole entry): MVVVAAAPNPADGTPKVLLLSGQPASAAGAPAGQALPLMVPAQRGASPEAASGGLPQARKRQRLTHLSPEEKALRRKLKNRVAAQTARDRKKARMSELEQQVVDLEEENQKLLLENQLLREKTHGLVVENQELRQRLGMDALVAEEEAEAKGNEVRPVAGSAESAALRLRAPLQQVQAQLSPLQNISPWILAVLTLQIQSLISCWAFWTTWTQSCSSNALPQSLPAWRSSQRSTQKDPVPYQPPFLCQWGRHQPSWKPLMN
The format is functional, Cricetulus griseus.

A short description of assay [16]: IC50 of Artemis nuclease activity blockers – biochemical, fluorescence intensity, dose response (AID 720701).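 Also: Artemis endonuclease enzyme.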 In kind it is functional.
The nature of assay [17]: Late stage assay provider results from the probe development effort to identify inhibitors of the Plasmodium falciparum M18 Aspartyl Aminopeptidase (M18AAP): radiolabel-based cell-based dose response assay to identify compounds that inhibit P. falciparum growth in RBCs, Set 2.. In kind it is functional.
The target in a further assay is Transthyretin (Homo sapiens, UniProt P02766). Nature of the assay: Luminescence-based cell-based high throughput dose response assay to identify activators of Transthyretin (TTR) transcription. In kind it is functional.

A word on the AC50: it is the midpoint of the concentration-response curve, whichever way the signal moves. The term IC50 denotes the concentration that inhibits the measured activity by half. A word on the EC50: it is the concentration needed to bring the measured effect to its halfway point.

On to `C#CCCCC(=O)NCCOCCOCCOc1ccc(N(C(=O)CCl)C(C(=O)NCCc2ccccc2)c2cccs2)cc1Cl` (stereo not drawn), for which the concentration at half-maximal activity (AC50) in assay [1] is 4.9 µM (active); in assay [2], 1.18 µM (active); in assay [3], 4.54 µM (active); in assay [4], 993 nM (active); in [5], 16.6 µM (active); in [6] it was 22.4 µM (active). Further, the figures for the half-maximal activity concentration (AC50) in [7] and in [8] were 1.25 µM (active) and 1.38 µM (active), respectively.
Regarding `Cc1ccc(C(C)C)c(OCCn2/c(=N/C#N)[nH]c3ccccc32)c1`, the AC50 in “cells [9]” is 34 µM (active).
For the molecule `CC(NC(N)=O)C12CC3CC(CC(C3)C1)C2` (stereo not drawn), the IC50 in assay [10] is given as > 100 µM (not active).
As for `CCOc1cc(CC(=O)N[C@@H](CC(C)C)c2ccccc2N2CCCCC2)ccc1C(=O)O` [REPAGLINIDE], the half-maximal inhibitory concentration (IC50) in assay [11] is 27 nM (active); in the assay “cells [12]” it was 136 nM (active).
Take `COC(=O)C1=C(C)N(Cc2ccc(Br)cc2)C(=S)NC1c1ccc(OC)cc1` (stereo not drawn): the AC50 with Cryptococcus neoformans is > 60 µM (inactive); in the assay with Cryptococcus neoformans (Cryptococcus neoformans), 36.4 µM (active); in the assay on HeLa, > 47 µM (inactive); in the assay on HEK293, 22.2 µM (active); in [13], 22.2 µM (active).
For `O=C(c1ccc2c3c(cccc13)C(=O)N(O)C2=O)N1CCCCC1`, the concentration giving a half-maximal response (EC50) in assay [14] was 11 µM (active); in assay [15], 13.7 µM (active). Further, at X-box-binding protein 1, the “Absolute IC50 (XBP1)” value amounted to 10 µM. Further, the IC50 in assay [16] was 11.5 µM (active).
`CN(CCc1ccc(O)c(O)c1)c1ccnc2ccccc12`: the concentration for half-maximal inhibition (IC50) in assay [17] is 4.8 µM (active).
Regarding `CC(Oc1ccccc1)C(=O)N1CCN=C1SCc1ccccc1` (stereo not drawn), the EC50 at Transthyretin was > 167 µM (inactive).
